Test results taken from patent US11623944B2, “Paenibacillus strain, antifungal compounds, and methods for their use” (Bayer CropScience LP, priority 2015, dated 2023).
Where a SMILES comes first, the peptide text is derived from it. Bridges are numbered along the chain shown (N, C = ends). [ ]: non-standard residue; d: D form. The star is where a group is joined. ξ: configuration not given here. Pentadecanoyl(3ξ-OH,15-Gua) = N=C(N)NCCCCCCCCCCCCC(O)CC(=O)*; d(aThr) = C[C@@H](O)[C@@H](N)C(=O)O

Tests used:
[1] = test system: Paenibacillus sp. strain NRRL B-50972; experiment: Antibiotic sensitivity on sLB agar; type: cell-based; settings: growth after 24, 48, 72 hours at 30° C.
[2] = test system: Alternaria solani (ALTESO); experiment: In vitro antifungal 96-well plate assay (PRESTOBLUE); type: cell-based; settings: for potency of asparagine analogue relative to its glutamine counterpart: Fusaricidin A vs Fusaricidin B, LiF08a vs LiF08b; for potency of asparagine analogue relative to its glutamine counterpart / relative potency of analogues differing at amino acid positions (2) and (3): FIG. 17; for relative potency of analogues differing at amino acid positions (2) and (3): Fusaricidin A, LiF05a, LiF06a, LiF08a compared; for Efficacy in % found: 0.25 mg/mL, alone
[3] = test system: Botrytis cinerea (BOTRCI); experiment: as above; type: cell-based; settings: Minimum Inhibitory Concentration for 80%
Protocol: The in vitro antifungal 96-well plate assay utilizes the resazurin-based cell viability reagent PRESTOBLUE® as an indicator for fungal growth. […] The assay was prepared with three agricultural-relevant fungal diseases: Alternaria solani ([…]), Colletotrichum lagenarium (COLLLA), and Botrytis cinerea (BOTRCI).

[4] = test system: Colletotrichum lagenarium (COLLLA); experiment: as above; type: cell-based; settings: Minimum Inhibitory Concentration for 80%
[5] = test system: Pseudomonas syringae (PSDMTM); experiment: In vitro antibacterial 96-well plate assay (absorbance); settings: NDR = no inhibition of bacterial growth at the highest concentrations tested
Protocol: (§1) The in vitro antibacterial 96-well plate assay uses absorbance as an indicator for bacterial growth. The assay measures the potency of a sample to inhibit bacterial growth by comparing the absorbance of the untreated wells to the sample wells. The last dilution/concentration that inhibits the growth of the bacteria is called the MIC (minimum inhibitory concentration) and this value can be used to compare the efficacy of different samples. The assay was evaluated with three agricultural-relevant bacterial diseases: Xanthomonas campestris (XANTAV), Pseudomonas syringae (PSDM™), and Erwinia carotovora (ERWICA).

[6] = test system: Xanthomonas campestris (XANTAV); experiment: as above
Protocol: as §1

[7] = test system: Erwinia carotovora (ERWICA); experiment: as above; settings: NDR = no inhibition of bacterial growth at the highest concentrations tested
Protocol: as §1

O=C(N[C@H](CO)[C@H](O)c1ccc([N+](=O)[O-])cc1)C(Cl)Cl [Chloramphenicol]
Sensitive/Resistant ([1]; antibiotic 5 μg/mL): Resistant

CC[C@H]1OC(=O)[C@H](C)[C@@H](O[C@H]2C[C@@](C)(OC)[C@@H](O)[C@H](C)O2)[C@H](C)[C@@H](O[C@@H]2O[C@H](C)C[C@H](N(C)C)[C@H]2O)[C@](C)(O)C[C@@H](C)C(=O)[C@H](C)[C@@H](O)[C@]1(C)O [Erythromycin]
Sensitive/Resistant ([1]; antibiotic 5 μg/mL): Sensitive

CC(C)[C@@H]1NC(=O)[C@@H](C(C)C)NC(=O)[C@@H](NC(=O)CC(O)CCCCCCCCCCCCN=C(N)N)[C@@H](C)OC(=O)[C@@H](C)NC(=O)[C@@H](CC(N)=O)NC(=O)[C@@H]([C@@H](C)O)NC1=O (some centres unmarked) [Fusaricidin A] ({Pentadecanoyl(3ξ-OH,15-Gua)}-T[dV]V[d(aThr)][dN][dA]; ester 1-C)
potency of asparagine analogue relative to its glutamine counterpart [2]: over twice more potent
relative potency of analogues differing at amino acid positions (2) and (3) [2]: most potent
MIC80 ALTESO ([2]; Minimum Inhibitory Concentration for 80%): 1.6 ppm
Efficacy in % found ([2]; Table 23): 39.0%
Efficacy in % found ([2]; Table 24): 42.0%
MIC80 BOTRCI [3]: 1.5 ppm
MIC80 COLLLA [4]: 6.3 ppm
MIC80 PSDMTM [5]: NDR*
MIC80 XANTAV [6]: 24 ppm
MIC80 ERWICA [7]: 75 ppm

CC[C@@H](C)[C@H]1NC(=O)[C@@H](NC(=O)CC(O)CCCCCCCCCCCCN=C(N)N)[C@@H](C)OC(=O)[C@@H](C)NC(=O)[C@@H](CC(N)=O)NC(=O)[C@@H]([C@@H](C)O)NC(=O)[C@H]([C@@H](C)CC)NC1=O (some centres unmarked) [LiF08a] ({Pentadecanoyl(3ξ-OH,15-Gua)}-T[dI]I[d(aThr)][dN][dA]; ester 1-C)
potency of asparagine analogue relative to its glutamine counterpart [2]: over twice more potent
relative potency of analogues differing at amino acid positions (2) and (3) [2]: most potent

CCC[C@@H]1C[C@@H](C(=O)N[C@@H]([C@H]2O[C@H](SC)[C@H](O)[C@@H](O)[C@H]2O)[C@@H](C)O)N(C)C1 [Lincomycin]
Sensitive/Resistant ([1]; antibiotic 25 μg/mL): Resistant

CN[C@@H]1[C@H](O)[C@H](NC)[C@H]2O[C@@]3(O)C(=O)C[C@@H](C)O[C@H]3O[C@@H]2[C@H]1O [Spectinomycin]
Sensitive/Resistant ([1]; antibiotic 100-250 μg/mL): Resistant (growth, albeit reduced,

CN(C)[C@@H]1C(=O)C(C(N)=O)=C(O)[C@@]2(O)C(=O)C3=C(O)c4c(O)cccc4[C@@](C)(O)[C@H]3C[C@@H]12 [Tetracyclin]
Sensitive/Resistant ([1]; antibiotic 5 μg/mL): Sensitive
